Experiments:
[1] = system: type II collagen (COL2A1); assay: Articular chondrocyte pellet, RT-PCR expression of type II collagen; details: for Relative expression of Type II collagen (%) (Mean ± SD): no treatment = 100, n=3, peptide as in Example 1 test (25 μM)
Method: (§1) In order to ensure that cellular properties of articular chondrocytes are maintained similarly to those of biological tissue, the cells were pelleted and cultured.
Cartilage tissue was prepared from hoof joints of less than 3-year old cows within one hour of being sacrificed at a regional slaughterhouse (located in Ojeong-dong, Daejeon, South Korea). For this purpose, a cartilage portion other than bone was cut using a surgical knife and collected to use. The cartilage tissue was sliced into a hexahedron of about 1 mm long at each side and placed in DMEM/F12 (Welgene) supplemented with Pronase (1 mg/ml, Roche), followed by reaction in a 5% CO2 incubator at 37° C. for 1.5 hours. The Pronase-treated tissue was washed twice with PBS(phosphate buffered saline) and then once with DMEM/F12. The washed cartilage tissue was placed in DMEM/F12 supplemented with 5% FBS (fetal bovine serum) (Invitrogen), Collagenase P (0.25 mg/ml, Roche) and DNase I (20 μg/ml, Sigma) and was allowed to react in a 5% CO2 incubator at 37° C. for 8 to 12 hours, such that the tissue was completely degraded. After the degradation was completed, the cells were collected by centrifugation at 500 xg for 15 minutes and washed twice with PBS. The cells were suspended at a cell density of 2×10^6 cells/ml in DMEM/F12 supplemented with 10% FBS and ascorbate (50 μg/ml, Sigma), and lml/tube of the cells were dispensed into 15 ml conical tubes. The cells were pelleted by centrifugation at 500 xg for 10 minutes and cultured in a 5% CO2 incubator at 37° C. for 2 days, thereby preparing a cell pellet which is solid. The pellet was transferred to a 24-well plate and cultured for 5 days. […] On Day 13, the cells were cultured in serum-free media for 24 hours.
RNA was isolated from the cultured pellet using TRIZOL (Invitrogen) and quantified by absorbance at 260 nm. cDNA was synthesized from 2.25 μg of RNA, using a random hexamer and 5× Reverse Transcriptase Master premix (Elpis Biotech, South Korea). Using 1 μl of synthesized cDNA, amplification was carried out by polymerase chain reaction (PCR) to investigate expression levels of genes. The genes to be investigated are as follows: a gene for chondrocyte-characteristic type II collagen (COL2A1) as a gene for confirming the regeneration of articular cartilage tissue; a gene for matrix metallopeptidase 13 (MMP13) which is over-expressed in damaged cartilage tissue and is involved in the degradation of the matrix, as a gene for confirming whether or not it is capable of preventing additional cartilage damage; and a gene for type X collagen (COL10A1) characteristic to hypertrophic chondrocytes involved in the ossification of articular tissue, as a gene for confirming whether or not it is over-activated and progressed to ossification.
Specifically, PCR was carried out under the following reaction conditions. The PCR reaction employed 1 μl of cDNA, 10 μl of 2× Taq polymerase master mix (Solgent), 0.5 μl of each primer set (10 pmole/μl), and 8 μl of distilled water. PCR amplification consisted of denaturation at 94° C. for 2 minutes, followed by reaction at 94° C. for 30 seconds, at 58° C. for 45 seconds and at 72° C. or 1 minute, with 32 cycles for Type II collagen, Type X collagen and MMP13, and 26 cycles for GAPDH, respectively.

[2] = system: damaged cartilage tissue explants (articular chondrocyte explants); assay: Cartilage regeneration in damaged cartilage tissue explants; assay type: cell-based, cows; details: for changes in damaged region of explant (micrograph, FIG. 1): 25 μM peptide
Method: Using a syringe (21G) whose tip was truncated and ground, damaged regions were prepared by making vertical holes to the surface uniformly at the center of the explant.
The perforated tissue explants were divided into 4 groups including a control group. […] In addition, the 1-week-incubated tissue explant and the 6-week-incubated tissue explant were fixed, respectively, in a 3.7% formaldehyde/phosphate buffered saline(3.7% formaldehyde/PBS). Then, according to the experimental method of standard histochemistry, paraffin section slides were prepared, followed by hematoxylin & eosin (H&E) staining and microscopic examination of cell shape and distribution in terms of morphology. Collagen was subjected to Masson's trichrome staining, and the shape and distribution of cells in the tissue were examined under a microscope. For comparison, the control group was treated in the same manner as in the group treated with the peptide of Example 1, except that the peptide of Example 1 was not treated.

[3] = system: matrix metallopeptidase 13 (MMP13); assay: Articular chondrocyte pellet, RT-PCR expression of MMP13; assay type: cell-based, cows; details: 25 μM peptide; normalized to GAPDH
Method: as §1
(§2) Cartilage tissue was prepared from hoof joints of less than 3-year old cows within one hour of being sacrificed at a regional slaughterhouse (located in Ojeong-dong, Daejeon, South Korea). For this purpose, a cartilage portion other than bone was cut using a surgical knife and collected to use. The cartilage tissue was sliced into a hexahedron of about 1 mm long at each side and placed in DMEM/F12 (Welgene) supplemented with Pronase (1 mg/ml, Roche), followed by reaction in a 5% CO2 incubator at 37° C. for 1.5 hours. The Pronase-treated tissue was washed twice with PBS(phosphate buffered saline) and then once with DMEM/F12. The washed cartilage tissue was placed in DMEM/F12 supplemented with 5% FBS (fetal bovine serum) (Invitrogen), Collagenase P (0.25 mg/ml, Roche) and DNase I (20 μg/ml, Sigma) and was allowed to react in a 5% CO2 incubator at 37° C. for 8 to 12 hours, such that the tissue was completely degraded. […]
(§3) RNA was isolated from the cultured pellet using TRIZOL (Invitrogen) and quantified by absorbance at 260 nm. cDNA was synthesized from 2.25 μg of RNA, using a random hexamer and 5× Reverse Transcriptase Master premix (Elpis Biotech, South Korea). […]

[4] = system: type X collagen (COL10A1); assay: Articular chondrocyte pellet, RT-PCR expression of type X collagen; assay type: cell-based, cows; details: 25 μM peptide; normalized to GAPDH
Method: as §1, §2, §3

[5] = system: degenerative arthritis model; assay: Cartilage regeneration in degenerative arthritis model (anterior cruciate ligament excision); assay type: in vivo, New Zealand white rabbits; details: intra-articular cavity injection once a week for 4 weeks
Method: As experimental animals, 18 to 22-week-old male New Zealand white rabbits (n=10), weighing 3 to 3.5 kg, were purchased from Orient Bio Inc. (South Korea). The animal experiments were performed in accordance with guidelines of the Institute of Laboratory Animal Resources (ILAR) under approval of Institutional Animal Care and Use Committee of Samsung Biomedical Research Institute (SBRI, Seoul, South Korea). Degeneration of articular cartilage was induced by surgically dissecting the patellar anterior cruciate ligament of rabbits and breeding the animals in a cage for 4 weeks. The animals were divided into a control group and an experimental group.
The rabbits were put under general anesthesia by intramuscularly injecting 2.5 mg/kg of xylazine (Rompun, Bayer) and 8 mg/kg of Tiletamine/Zolazepam (Zoletil, Virbac). Then, the patellar joints of right hind legs of animals were shaved and disinfected. Patellar skins and joint capsules were excised and patellae were displaced to expose anterior cruciate ligaments. Thereafter, the ligament was excised using a razor blade (No. 11) and the joint capsule and skin were sutured. After the surgical operation was completed, the rabbits were raised in a cage for 4 weeks while allowing for routine motion. The animals were housed under the following conditions: temperature of 20 to 25° C. humidity of 10% to 50%, and Light/Dark (L/D) cycle: (light from 08:00 a.m. to 20:00 p.m.). All animals were fed once a day. At Week 4 after the surgical operation, the rabbits were divided into two groups, followed by intra-articular cavity injection. The control group was given an injection of a vehicle (5% lactose/physiological saline). For the experimental group, 200 μl of 52.5 μM peptide solution was injected to the group to which 30 μM of the peptide of Example 1 was administered, and 200 μl of 157.5 μM peptide solution was injected to the group to which 90 μM of the peptide of Example 1 was administered. The above-mentioned peptide was prepared in a solvent of 5% lactose/physiological saline prior to use. An injection was given once a week for 4 weeks. 1 and 5 weeks after the final injection (Week 8 and 12 after the first operation), the experimental animals were euthanized by vascular injection of 1 to 2 mM/kg of KCl under deep anesthesia.
The proximal portion (femoral region) of the patellar articular bone was excised. For the comparison with normal tissue, left normal articular region was also additionally excised, followed by naked-eye examination and photographing. The excised articular regions were fixed in 10% formalin, decalcified by using a decalcifier solution (CalciClear Rapid, National Diagnostics), and then made into paraffin blocks. The frontal plane of articular bone was cut into a thickness of 4 μm, thereby preparing a slide. […]

## Asp-Leu-Arg-Leu-Glu (DLRLE; Artificial peptide sequence prepared by coupling amino acid units one by one from the C-terminal, by Fmoc SPPS (9-flourenlymethyloxycarbonyl solid phase peptide synthesis) using an automated peptide synthesizer.) [Example 12]
[1]
  Relative expression of Type II collagen (%) (Mean ± SD): 159 ± 28%

## Asp-Leu-Arg-Leu-Asp (DLRLD; Artificial peptide sequence prepared by coupling amino acid units one by one from the C-terminal, by Fmoc SPPS (9-flourenlymethyloxycarbonyl solid phase peptide synthesis) using an automated peptide synthesizer.) [Example 11]
[1]
  Relative expression of Type II collagen (%) (Mean ± SD): 157 ± 34%

## Asp-Leu-Lys-Leu-Glu (DLKLE; Artificial peptide sequence prepared by coupling amino acid units one by one from the C-terminal, by Fmoc SPPS (9-flourenlymethyloxycarbonyl solid phase peptide synthesis) using an automated peptide synthesizer.) [Example 10]
[1]
  Relative expression of Type II collagen (%) (Mean ± SD): 166 ± 26%

## Asp-Leu-His-Leu-Glu (DLHLE; Artificial peptide sequence prepared by coupling amino acid units one by one from the C-terminal, by Fmoc SPPS (9-flourenlymethyloxycarbonyl solid phase peptide synthesis) using an automated peptide synthesizer.) [Example 8]
[1]
  Relative expression of Type II collagen (%) (Mean ± SD): 115 ± 42%

## Glu-Leu-Lys-Leu-Glu (ELKLE; Artificial peptide sequence prepared by coupling amino acid units one by one from the C-terminal, by Fmoc SPPS (9-flourenlymethyloxycarbonyl solid phase peptide synthesis) using an automated peptide synthesizer.) [Example 4]
[1]
  Relative expression of Type II collagen (%) (Mean ± SD): 124 ± 12%

## Asp-Leu-Lys-Leu-Asp (DLKLD; Artificial peptide sequence prepared by coupling amino acid units one by one from the C-terminal, by Fmoc SPPS (9-flourenlymethyloxycarbonyl solid phase peptide synthesis) using an automated peptide synthesizer.) [Example 9]
[1]
  Relative expression of Type II collagen (%) (Mean ± SD): 147 ± 41%

## Glu-Leu-His-Leu-Glu (ELHLE; Artificial peptide sequence prepared by coupling amino acid units one by one from the C-terminal, by Fmoc SPPS (9-flourenlymethyloxycarbonyl solid phase peptide synthesis) using an automated peptide synthesizer.) [Example 2]
[1]
  Relative expression of Type II collagen (%) (Mean ± SD): 163 ± 19%

## Glu-Leu-Lys-Leu-Asp (ELKLD; Artificial peptide sequence prepared by coupling amino acid units one by one from the C-terminal, by Fmoc SPPS (9-flourenlymethyloxycarbonyl solid phase peptide synthesis) using an automated peptide synthesizer.) [Example 3]
[1]
  Relative expression of Type II collagen (%) (Mean ± SD): 161 ± 29%

## Glu-Leu-Arg-Leu-Asp (ELRLD; Artificial peptide sequence prepared by coupling amino acid units one by one from the C-terminal, by Fmoc SPPS (9-flourenlymethyloxycarbonyl solid phase peptide synthesis) using an automated peptide synthesizer.) [Example 5]
[1]
  Relative expression of Type II collagen (%) (Mean ± SD): 149 ± 27%

## Glu-Leu-His-Leu-Asp (ELHLD; Artificial peptide sequence prepared by coupling amino acid units one by one from the C-terminal, by Fmoc SPPS (9-flourenlymethyloxycarbonyl solid phase peptide synthesis) using an automated peptide synthesizer.) [Example 1]
[2]; 6-week culture, 25 μM peptide and/or 2 ng/ml TGFβ1
  damaged region of explant, hematoxylin & eosin staining (FIG. 4): the damaged region was narrowed
[2]; after 2 weeks
  changes in damaged region of explant (micrograph, FIG. 1): gradually decreased
[2]; after 4 weeks, with or without 2 ng/ml TGFβ1
  changes in damaged region of explant (micrograph, FIG. 1): cells began to adhere around the damaged region
[2]; after 6 weeks, with or without 2 ng/ml TGFβ1
  changes in damaged region of explant (micrograph, FIG. 1): remarkably reduced
[3]
  decrease in the expression of MMP13, as compared to the control group: 10%
[4]
  decrease in the expression of type X collagen (COL10A1), as compared to the control group: 69%
[5]; 30 μM and 90 μM
  proteoglycan in the cartilage matrix, Safranin O staining (FIG. 10): increased synthesis of proteoglycan in a dose-dependent manner
[5]; 30 μM, 90 μM
  articular cartilage tissue observed by naked eyes (FIG. 8): smooth surface and gloss close to the normal state
[5]
  H&E staining pattern of cartilage tissue (FIG. 9): staining pattern similar to that of the normal group
  cell size in H&E staining (FIG. 9): increased cell size
[1]; 25 μM peptide, normalized to GAPDH
  increase in the expression of type II collagen, as compared to the control group: 55%
[1]
  Relative expression of Type II collagen (%) (Mean ± SD): 155 ± 12%

## Glu-Leu-Arg-Leu-Glu [Example 6]
[1]
  Relative expression of Type II collagen (%) (Mean ± SD): 158 ± 38%

## Asp-Leu-His-Leu-Asp (DLHLD; Artificial peptide sequence prepared by coupling amino acid units one by one from the C-terminal, by Fmoc SPPS (9-flourenlymethyloxycarbonyl solid phase peptide synthesis) using an automated peptide synthesizer.) [Example 7]
[1]
  Relative expression of Type II collagen (%) (Mean ± SD): 190 ± 38%

— patent US8772241B2, “Peptide and use thereof” (Ensoltek Co., Ltd., priority 2010, dated 2014)
